{"source": "patent US8512941B2", "about": "“Biological material and methods and solutions for preservation thereof” (Core Dynamics Limited, priority 2004, dated 2013)", "key": {"[1]": {"system": "RBC", "settings": "introduction of trehalose into fresh RBC, not frozen or freeze-dried; Satpathy et al. 2004; cited from earlier work"}, "[2]": {"system": "Red blood cells (RBC)", "experiment": "RBC survival (cell count) after freezing/thawing or lyophilizing/rehydrating at 2.5 ml", "assay_type": "cell-based", "settings": "thawed, not lyophilized", "protocol": "Red blood cells (RBC) were separated from whole blood received from the Israeli Blood Bank. The blood was centrifuged for 10 minutes at 1500 g and the plasma was discarded. […] Afterwards the supernatant was discarded, and an equal volume of cryopreservation solution selected from the solutions in Table I was added to the packed RBC. Different volumes (2.5-50 ml) of the RBC suspension were transferred to a 16-25 mm diameter glass test tube ([…], Israel). The experiment of freezing 200 ml of RBC suspension was done in a 2000 ml freezing bag (Baxter-Fenwal, USA). Samples were then either frozen and thawed in a water bath at 37° C. or lyophilized and rehydrated with double distilled water (DDW) at 37° C. Glass test tubes containing RBC were frozen in a modified MTG freezing apparatus, as described in WO 03/020874 (manufactured by IMT, Israel). The thermal gradient in the cooling unit was set to 5.5° C./mm or 10.5° C./mm or 15.5° C./mm (as detailed below) with final temperatures of -50° C., -100° C. or -150° C. […] During freezing the test tubes that contained only 2.5 ml samples were rotated at a rate of 56 rpm. Subsequent to freezing, biological material was taken from each test tube to test for cell viability. Lyophilization was performed in a commercial lyophilizer (Labconco, USA) with a condenser temperature of -82° C. for 72 hours. The biological material was is rehydrated by adding DDW to reach the sample's original volume. Frozen (but not lyophilized) material was thawed by immersion in a water bath at 37° C. for until it melted. Melting was observed visually. Cells were counted using the […] 60 cell counter (ABX, France), in accordance with the manufacturer's manual. This device provides a complete cell count (CBC) that includes parameters such as: cell number, hematocrit, mean cell volume, hemoglobin, etc. […] In these experiments the cell suspension volume was 2.5 ml."}}, "data": [{"smiles": "OC[C@H]1O[C@H](O[C@H]2O[C@H](CO)[C@@H](O)[C@H](O)[C@H]2O)[C@H](O)[C@@H](O)[C@@H]1O", "note": "[Trehalose, reference compound]", "values": [{"measurement": "hemolysis", "setting": "[1]", "value": "causes significant hemolysis"}, {"measurement": "RBC survival, 1A Thawed", "setting": "[2]; frozen at 1,000° C./min, percentage of total fresh cells counted", "value": 89.04, "unit": "%"}, {"measurement": "RBC survival, 2A Thawed", "setting": "[2]; frozen at 2,000° C./min", "value": 93.24, "unit": "%"}]}]}
